{"source": "patent US9192159B2", "about": "“Azoxystrobin formulations” (priority 2006, dated 2015)", "origin": "cited, not measured here"}
{"smiles": "CO/C=C(/C(=O)OC)c1ccccc1Oc1cc(Oc2ccccc2C#N)ncn1", "note": "[Azoxystrobin]", "values": [{"measurement": "Solubility in water", "value": "low solubility in water"}]}
